According to patent US20060148694A1, “Inhibition of stress-induced ligand-dependent egfr activation” (Max-Planck-Gesellschaft zur Foerderung der Wessenschaften. …, priority 2003, published 2006):

Legend:
ERK1/2 [1] = test: ERK1/2 phosphorylation immunoblot in TCC-Sup cells; type: cell-based, human; details: AG1478 250 nM, BB94 10 μM, Crm197 10 μg/mL, FIG. 6A
Procedure: (§1) FIG. 6. MAPK activation in response to stress agents and blockade of EGFR, metalloprotease and HB-EGF function. (A) Cos-7 cells transiently transfected with pcDNA3-HA-ERK2, TCC-Sup and NCI-H292 cells were pre-treated with AG1478 (250 nM), BB94 (10 μM), Crm197 (10 μg/mL) or an equal volume of empty vehicle (DMSO) for 20 min and stimulated with 0.3 M sorbitol or 200 μM hydrogen peroxide for 30 min. After cell lysis total lysates were immunoblotted with anti-phospho-ERK antibody, followed by reprobing of the same membranes with polyclonal anti-ERK antibody. Quantitative analysis of ERK phosphorylation from three independent experiments (mean[…]s.d.) using the FUJI LAS1000 imaging system. (B) Cos-7 and NCI-H292 cell were treated as described under (A). After lysis, JNK was immunoprecipitated using an anti-JNK antibody, and JNK activity was assayed using GST-c-JUN fusion protein as a substrate. Phosphorylated GST-c-JUN was visualized by autoradiography and JNK was immunoblotted in parallel using polyclonal JNK antibody. Quantitative analysis of GST-c-JUN phosphorylation from three independent experiments (mean[…]s.d.) using the FUJI LAS1000 imaging system. TCC-Sup cells were treated as described under (A). […]
(§2) Cells were lysed and proteins immunoprecipitated as described before (Daub et al., 1997). […] Phosphotyrosine was detected with the 4G10 monoclonal antibody (UBI, Lake Placid, N.Y.). […]

ERK1/2 [2] = test: ERK1/2 phosphorylation immunoblot in Cos-7 cells (pcDNA3-HA-ERK2); type: cell-based; details: AG1478 250 nM, BB94 10 μM, Crm197 10 μg/mL 20 min, stimulated 30 min, FIG. 6A
Procedure: as §1, §2

p38 [3] = test: p38 phosphorylation immunoblot in Cos-7 cells; type: cell-based; details: AG1478 250 nM 20 min, 0.3 M sorbitol or 200 μM hydrogen peroxide, FIG. 2A
Procedure: FIG. 2. p38 mediates stress-induced EGFR phosphorylation. (A) Time-coure of p38 phosphorylation dependent on EGFR kinase function. Cos-7 cells were pretreated with AG1478 (250 nM) or an equal volume of empty vehicle (DMSO) for 20 min and stimulated with 0.3 M sorbitol or 200 μM hydrogen peroxide for the indicated periods. Cell extracts were immunoblotted with anti-phospho-p38 antibody and reprobing of the same filters with polyclonal anti-p38 antibody. (B) Stress-induced EGFR activation depends on p38 but not ERK activity in Cos-7 cells. Cos-7 cells were pre-treated with PD98059 (50 μM), SB202190 (10 μM) or an equal volume of empty vehicle (DMSO) for 30 min and stimulated with 0.3 M sorbitol and 200 μM hydrogen peroxide for 10 min and the GPCR agonist LPA (10 μM) or EGF (2 ng/mL) for 3 min as positive controls. Cell extracts were assayed for EGFR tyrosine phosphorylation content. (C) Stress-induced EGFR activation depends on p38 activity in TCC-Sup carcinoma cells. […]
FIG. 6. […] Quantitative analysis of ERK phosphorylation from three independent experiments (mean[…]s.d.) using the FUJI LAS1000 imaging system. […] Quantitative analysis of GST-c-JUN phosphorylation from three independent experiments (mean[…]s.d.) using the FUJI LAS1000 imaging system. […]

ERK1/2 [4] = test: ERK1/2 phosphorylation immunoblot in NCI-H292 cells; type: cell-based, human; details: AG1478 250 nM, BB94 10 μM, Crm197 10 μg/mL, FIG. 6A
Procedure: as §1, §2

EGFR [5] = test: EGFR tyrosine phosphorylation (IP/immunoblot) in NCI-H292 lung carcinoma cells; type: cell-based, human; details: for stress-induced EGFR activation upon siRNA transfection: 0.3 M sorbitol or 200 μM hydrogen peroxide 10 min
EGFR [6] = test: EGFR tyrosine phosphorylation (IP/immunoblot) in Cos-7 cells; type: cell-based; details: for stress-induced EGFR activation: pre-treated 30 min with SB202190 10 μM or PD98059 50 μM, 0.3 M sorbitol or 200 μM hydrogen peroxide 10 min; for EGFR activation by oxidative stress: Src inhibitors, unpublished data; for EGFR activation after sorbitol or hydrogen peroxide upon siRNA transfection: both stress stimuli, 10 min, FIG. 5B
p38 [7] = test: p38 activation immunoblot in TCC-Sup cells after doxorubicin; type: cell-based, human; details: doxorubicin treatment, FIG. 7A
Procedure: FIG. 7. Doxorubicin-induced cell death of TCC-Sup carcinoma cells. (A) p38 activation in response to doxorubicin treatment. TCC-Sup cells were seeded and treated with doxorubicin for the indicated time points. After cell lysis, p38 activation was assessed by immunoblotting cell extracts with anti-phospho-p38 antibody and reprobing of the same filters with anti-p38 antibody. (B) Blockade of HB-EGF function enhances cell-death in response to doxorubicin. Cells were treated for 72 h with 10 μM doxorubicin and 10 μg/mL Crm197 every 24 h as indicated. After collection of cells in assay buffer, nuclei were stained with PI and analyzed by flow cytometric analysis.
Cells were lysed and proteins immunoprecipitated as described before (Daub et al., 1997). Prior to lysis, cells grown to 80% confluence were treated with inhibitors and agonists as indicated in the figure legends and then lysed for 10 min on ice in buffer containing 50 mM HEPES, pH 7.5, 150 mM NaCl, 1% Triton X-100, 1 mM EDTA, 10% glycerol, 10 mM sodium pyrophosphate, 2 mM sodium orthovanadate, 10 mM sodium fluoride, 1 mM phenylmethylsulfonyl fluoride, and 10 μg/mL aprotinin. Lysates were precleared by centrifugation at 13,000 rpm for 10 min at 4° C. […] Phosphotyrosine was detected with the 4G10 monoclonal antibody (UBI, Lake Placid, N.Y.). […]

[8] = biological target: epidermal growth factor receptor (EGFR) (UniProt P00533); test: cell-based or functional assay
ADAM9 = test: RNA interference, gene expression by RT-PCR in NCI-H292 cells; type: cell-based, human; details: 2 days after transfection, FIG. 5A
Procedure: (§3) FIG. 5. Effect of siRNAs against different ADAM proteins on stress-induced EGFR phosphorylation. (A) Blockade of ADAM metalloprotease expression by RNA interference (RNAi). NCI-H292 cells were transfected with siRNA against ADAM9, ADAM10 or ADAM15, cultured for 2 days and analyzed for gene expression by RT-PCR as indicated. (B) Cos-7 cells were transfected with siRNAs against ADAM9, -10, -12, -15 and -17, serum-starved for 24 hours, stimulated with 0.3 M sorbitol or 200 μM hydrogen peroxide for 10 min and assayed for EGFR tyrosine phosphorylation content. (C)NCI-H292 cells were treated as described under (B).
(§4) Transfection of 21-nucleotide siRNA duplexes (Dharmacon Research, Lafayette, Colo., USA) for targeting endogenous genes was carried out using Oligofectamine (Invitrogen) for NCI-H292 cells and 4.2 μg siRNA duplex per 6-well plate as previously described (Elbashir et al., 2001). Cos-7 cells were transfected using Lipofectamine 2000 (Invitrogen) according to the manufacturer's protocol. Briefly, 8.4 μg siRNA duplex per 6 cm dish were incubated with 10 μL Lipofectamine 2000 in 1 mL serum-free medium for 20 minutes. The transfection mixture was added to the cell culture medium containing serum and, after 6 h, cells were washed and incubated in medium containing serum overnight. NCI-H292 and Cos-7 cells were serum-starved and assayed 2 d after transfection. Highest efficiencies in silencing target genes were obtained by using mixtures of siRNA duplexes targeting different regions of the gene of interest. Sequences of siRNA used were
(§5) Specific silencing of targeted genes was confirmed by RT-PCR analysis. RNA isolated using RNeasy Mini Kit (Qiagen, Hilden, Germany) was reverse transcribed using AMV Reverse Transcriptase (Roche, Mannheim, Germany). PuReTaq Ready-To-Go PCR Beads (Amersham Biosciences, Piscataway, N.J.) were used for PCR amplification. Primers (Sigma Ark, Steinheim, Germany) were
(§6) PCR products were subjected to electrophoresis on a 2.5% agarose gel and DNA was visualized by ethidium bromide staining.

ADAM10 = test: as above; type: cell-based, human; details: 2 days after transfection, FIG. 5A
Procedure: as §3, §4, §5, §6

ADAM15 = test: as above; type: cell-based, human; details: 2 days after transfection, FIG. 5A
Procedure: as §3, §4, §5, §6

Which “hyperosmolarity and oxidative stress-induced ERK1/2 activation” value (ERK1/2 [1]) does the source give for `COc1cc2ncnc(Nc3cccc(Cl)c3)c2cc1OC` [AG1478] here?
The value was “substantially blocked”.

What about the “sorbitol and hydrogen peroxide-induced activation of ERK1/2” value (ERK1/2 [2]) of the same molecule?
The value was “blocked”.

And the “p38 phosphorylation in response to stress agents” value (p38 [3])?
The value was “did not affect”.

And the “hyperosmolarity and oxidative stress-induced ERK1/2 activation” value (ERK1/2 [4])?
The value was “substantially blocked”.

Which “inhibition of stress-induced EGFR activation” value (EGFR [5]; BB94 10 μM 20 min, sorbitol 0.3 M or hydrogen peroxide 200 μM 10 min, printed 'inhibited ... to 50%') does the source give for `CNC(=O)[C@H](Cc1ccccc1)NC(=O)[C@H](CC(C)C)[C@H](CSc1cccs1)C(=O)NO` [BB94, Batimastat] here?
The value was 50%.

`COc1cccc(-c2cc(=O)c3ccccc3o2)c1N` [PD98059] was tested. Which “stress-induced EGFR activation” value (EGFR [6]; FIG. 2B) did it give?
The value was “did not affect”.

`Cc1ccc(-c2nn(C(C)(C)C)c3ncnc(N)c23)cc1` [PP1] was tested. Which “EGFR activation by oxidative stress” value (EGFR [6]) did it give?
The value was “did not achieve specific inhibition”.

`CC(C)(C)n1nc(-c2ccc(Cl)cc2)c2c(N)ncnc21` [PP2] was tested. Which “EGFR activation by oxidative stress” value (EGFR [6]) did it give?
Its value is “did not achieve specific inhibition”.

Which results are given for `Oc1ccc(-c2nc(-c3ccncc3)c(-c3ccc(F)cc3)[nH]2)cc1` [SB202190]?
EGF-induced receptor phosphorylation (EGFR [6]; SB202190 10 μM 30 min, EGF 2 ng/mL 3 min, FIG. 2B): unaffected; LPA-induced receptor phosphorylation (EGFR [6]; SB202190 10 μM 30 min, LPA 10 μM 3 min, FIG. 2B): unaffected; stress-induced EGFR activation (EGFR [6]; FIG. 2B): completely abrogated

With `COc1cccc2c1C(=O)c1c(O)c3c(c(O)c1C2=O)C[C@@](O)(C(=O)CO)C[C@@H]3O[C@H]1C[C@H](N)[C@H](O)[C@H](C)O1` [doxorubicin] as the molecule, how does the p38 activation (p38 [7]) read?
Its p38 activation is “induces p38 activation”.

For “HB-EGF (from UniProt Q99075 20-208) (ligand)”, which JNK activity in response to oxidative stress (Cos-7 cells; kinase assay with GST-c-JUN) [8] is on record?
The JNK activity in response to oxidative stress (Cos-7 cells; kinase assay with GST-c-JUN) was 50%.

For “siRNA against ADAM9: mixture of 21-nucleotide siRNA duplexes, SEQ ID NO 1 and 2, targeting ADAM9 (chain 1 AAUCACUGUGGAGACAUUUGCTT; chain 2 AAACUUCCAGUGUGUAGAUGCTT; chemistry not fully specified)”, which “stress-induced EGFR activation upon siRNA transfection” value (EGFR [5]; FIG. 5C) is on record?
Its value is “participate in the stress response”.

What about the “knockdown of target gene expression (ADAM9)” value (ADAM9) of the same molecule?
The value was “efficient and specific knockdown”.

For “siRNA against ADAM10: mixture of 21-nucleotide siRNA duplexes, SEQ ID NO 3 and 4, targeting ADAM10 (chain 1 AAUGAAGAGGGACACUUCCCUTT; chain 2 AAGUUGCCUCCUCCUAAACCATT; chemistry not fully specified)”, which “knockdown of target gene expression (ADAM10)” value (ADAM10) is on record?
Its value is “efficient and specific knockdown”.

And the “EGFR activation after sorbitol or hydrogen peroxide upon siRNA transfection” value (EGFR [6])?
Its value is “involved in EGFR activation”.

How did the “EGFR activation upon siRNA transfection, hydrogen peroxide treatment only” value (EGFR [5]; 200 μM hydrogen peroxide, FIG. 5C) turn out when “siRNA against ADAM12: mixture of siRNA duplexes, SEQ ID NO 5 and 6, targeting ADAM12 (chain 1 AACCUCGCUGCAAAGAAUGUGTT; chain 2 AAGACCUUGATACGACUGCUGTT; chemistry not fully specified)” was run?
Its value is “participate in the stress response”.

For “siRNA against ADAM15: mixture of siRNA duplexes, SEQ ID NO 7 and 8, targeting ADAM15 (chain 1 AACUCCAUCUGUUCUCCUGACTT; chain 2 AAAUUGCCAGCUGCGCCCGUCTT; chemistry not fully specified)”, which “knockdown of target gene expression (ADAM15)” value (ADAM15) is on record?
Its value is “efficient and specific knockdown”.

B1: siRNA against ADAM17: mixture of siRNA duplexes, SEQ ID NO 9 to 11, targeting ADAM17 (nucleic acid)
chain 1: AAAGUUUGCUUGGCACACCUUTT
chain 2: AAGUAAGGCCCAGGAGUGUUTT
chain 3: AACAUAGAGCCACUUUGGAGATT
modifications: chemistry not fully specified
Which results are given for B1?
stress-induced EGFR activation upon siRNA transfection (EGFR [5]; FIG. 5C): involved in stress-induced EGFR activation; EGFR activation after sorbitol or hydrogen peroxide upon siRNA transfection (EGFR [6]): involved in EGFR activation
